As a reminder, the pIC50 is −log10 of the IC50, conventionally taken in molar units. A higher pIC50 goes with a low IC50.

The results in this text go back to BindingDB's records for patent US20240025899 (Shanghai De Novo Pharmatech, 2024).

pIC50: −log10 of the molar value.

This assay deals with T1, Serine/threonine-protein kinase ATR [14-953] (Homo sapiens, UniProt Q13535).
T1 construct: 14-953
The assay can be described thus: ATR Enzyme Assay. As for the experimental part:
In this experiment, the phosphorylation level of substrate protein P53 (Eurofins, 14-952) was detected by HTRF technology to measure the activity of ATR/ATRIP (Eurofins, 14-953) kinase. Reaction buffer (25 mM HEPES pH 8.0, 0.01% Brij-35, 1% Glycerol, 5 mM DTT, 1 mg/mL BSA), termination buffer (12.5 mM HEPES pH 8.0, 0.005% Brij-35, 0.5% Glycerol, 250 mM EDTA) and assay buffer (50 mM HEPES pH 7.0, 150 mM NaCl, 267 mM KF, 0.1% sodium cholate, 0.01% Tween 20) were prepared in advance. ATR/ATRIP was diluted with reaction buffer to a working solution of 2 ng/μL, and the substrate protein P53 was diluted with reaction buffer to a working solution of 80 nM, and […] (Sigma, A2383) working solution (containing 40 mM MnCl2) was prepared with reaction buffer. The compound was 3-fold diluted with DMSO, then diluted with reaction buffer into a working solution, then added to a 384-well plate at 2.5 μL/well, and centrifuged at 1500 rpm for 40 s. Then 2.5 μL of ATR/ATRIP working solution, P53 working solution and ATP working solution were added into the 384-well plate, centrifuged at 1500 rpm for 40 s and reacted at room temperature for 30 minutes.

T1 sequence (Q13535 14-953): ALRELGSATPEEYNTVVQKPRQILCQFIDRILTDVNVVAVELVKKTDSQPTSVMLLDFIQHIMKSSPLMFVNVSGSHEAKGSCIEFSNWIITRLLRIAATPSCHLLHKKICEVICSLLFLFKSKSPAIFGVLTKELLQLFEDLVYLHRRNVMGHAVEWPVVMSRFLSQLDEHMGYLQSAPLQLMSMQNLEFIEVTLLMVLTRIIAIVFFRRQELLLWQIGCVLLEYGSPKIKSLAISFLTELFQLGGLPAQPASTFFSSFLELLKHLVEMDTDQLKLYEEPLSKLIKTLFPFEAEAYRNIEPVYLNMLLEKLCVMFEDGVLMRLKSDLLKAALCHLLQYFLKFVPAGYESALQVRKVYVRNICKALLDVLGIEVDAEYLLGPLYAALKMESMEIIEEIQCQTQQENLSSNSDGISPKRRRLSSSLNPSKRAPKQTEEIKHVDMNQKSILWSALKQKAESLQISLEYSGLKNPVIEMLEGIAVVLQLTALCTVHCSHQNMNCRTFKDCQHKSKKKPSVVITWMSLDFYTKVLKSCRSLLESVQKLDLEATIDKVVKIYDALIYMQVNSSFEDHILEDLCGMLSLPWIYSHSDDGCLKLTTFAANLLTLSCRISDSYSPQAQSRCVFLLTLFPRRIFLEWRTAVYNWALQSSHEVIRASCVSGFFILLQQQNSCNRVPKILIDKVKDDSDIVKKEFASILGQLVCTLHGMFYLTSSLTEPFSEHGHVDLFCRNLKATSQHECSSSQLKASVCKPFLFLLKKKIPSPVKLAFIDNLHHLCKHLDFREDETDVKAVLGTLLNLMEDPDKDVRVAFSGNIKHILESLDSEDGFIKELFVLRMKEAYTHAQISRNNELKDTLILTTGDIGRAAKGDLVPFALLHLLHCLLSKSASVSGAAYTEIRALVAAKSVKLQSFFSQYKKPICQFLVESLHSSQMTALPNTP

In the case of `C[C@@H]1COCCN1c1nc2c(cnn2-c2cc[nH]n2)c2c1CCN2S(N)(=O)=O` [US20240025899, Compound 5], the pIC50 is 8.19. Next, `C[C@@H]1COCCN1c1nc2c(cnn2-c2cc[nH]n2)c2c1CCN2C` [US20240025899, Compound 12]: 7.85.
